Legend:
[1] = target: T1, Human Cat-K (Homo sapiens, UniProt P43235); test: Enzymatic isoform-selectivity assay, Cat-K; format: biochemical
T1 sequence (P43235 115-329): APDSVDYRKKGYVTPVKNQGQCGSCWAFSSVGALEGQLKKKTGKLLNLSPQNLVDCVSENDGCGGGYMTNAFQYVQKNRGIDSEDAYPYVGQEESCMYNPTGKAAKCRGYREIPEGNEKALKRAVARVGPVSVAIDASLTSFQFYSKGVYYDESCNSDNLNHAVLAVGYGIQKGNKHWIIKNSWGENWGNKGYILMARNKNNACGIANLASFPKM
Protocol: (§1) RO5459072 was provided by F. Hoffmann-La Roche, Ltd., Basel, Switzerland. It is a competitive inhibitor of the active site of Cat-S and its nitrile function allows covalent reversible inhibition of Cat-S. The synthesis of RO5459072 has been described in WO 2010121918 and WO 2013068434. Recombinant cathepsins were produced in-house or were purchased from commercial vendors. Initial enzymatic assays to determine isoform-selectivity in vitro were performed as previously described, [23]. […] For this the Cat-S-dependent hydrolysis of the fluorogenic substrate Z-Phe-Arg-AMC (Sigma Aldrich) was followed at various inhibitor concentrations. The active fraction of Cat-S was detemined as 70% with a HPLC assay measuring modification of Cat-S with the covalent inhibitor LHVS. The buffer (100 mM potassium phosphate, 50 mM NaCl, 5 mM EDTA, 5 mM TCEP, pH 6) was thoroughly degassed prior to perfoming measurements to prevent oxidation of the catalytic cystein residue by dissolved oxygen. For the Ki-determination the substrate was employed at 10 µM = KM. All kinetic measurements were performad on a SFM-3000 stopped-flow instrument (Bio-Logic Science Instruments) and data were analyzed with GraphPad Prism v5.

[2] = target: Human Cat-S (Homo sapiens, UniProt P25774); test: Enzymatic isoform-selectivity assay, human Cat-S; format: biochemical; conditions: read-out: apparent IC50, human Cat-S
Protocol: as §1

[3] = tested on: MRL-(Fas)lpr mice; test: Experimental SLE and lupus nephritis, treatment week 11 to 19; format: in vivo
Protocol: Four-week-old female MRL-(Fas)lpr mice were purchased from Harlan Winkelmann (Borchen, Germany) and kept under pathogen-free conditions in a 12 hour light and dark cycle with free access to food and water. All animal experiments were performed in accordance with the European protection laws of animal welfare, and with approval by the local government authorities Regierung von Oberbayern (reference number: 55.2.1-54-2532.2-11-12). At 11 or 15 weeks of age only mice with proteinuria (Albustix, Bayer AG, Leverkusen, Germany) were randomized into five different groups (n = 10) receiving different medicated diets: Three groups were fed with chow mixed with either 3, 10 or 30 mg/kg/day RO5459072, another group’s chow was mixed with 100 mg/kg/day mycophenolate mofetil (MMF), and one group received a standard diet (vehicle). The dose of MMF was chosen according to several studies reporting strong efficacy on SLE and lupus nephritis in MRL-(Fas)lpr mice[24]–[26]. […] At the age of 19 weeks all mice were sacrificed by cervical dislocation. Blood and urine samples were collected at different time points as indicated. In other experiments 7 week old female MRL-(Fas)lpr mice were randomized into three groups (n = 3) to receive a single intravenous injection of 10 µg sterile recombinant Cat-S and one group receiving vehicle (100 µl sterile PBS). One of the Cat-S groups was pretreated with 30 mg/kg/day RO5459072 starting one week prior to Cat-S injection; another group was pretreated with a total of four daily intra-peritoneal injections of the PAR-2 inhibitor GB83 (10 mg/kg).
Kidney tissue samples were collected from all mice and fixed overnight in 4% buffered formalin. Subsequently the fixed tissue samples were embedded in paraffin and cut into 4 µm thick serial sections. Kidney paraffin sections were stained with periodic acid-Schiff (PAS) reaction using standardized protocols as described. Scoring of lupus nephritis activity and chronicity indices was performed according to human lupus nephritis, [43]. Methenamine silver staining was performed on paraffin embedded kidney sections and semiquantitatively scored form 0–3 by a blinded observer. For immunostaining the following primary antibodies were used: anti-mouse CD3 (Abcam, Cambridge, UK), complement C3c (Biobyt Ltd, Cambridge, UK), CD31 (Dianova GmbH, Hamburg, Germany), WT1 (Santa Cruz Biotechnology, Dallas, Texas) and nephrin (Acris Antibodies, San Diego, CA). The immunostaining for C3c and CD31 were analyzed using the ImageJ software by measuring positively stained area and dividing it by the total area of the glomerulus and reported as percentage of +ve area. Sections stained for WT1/nephrin and CD3 were evaluated by counting positive cells per glomerulus. All the morphometric analysis were carried out in a blinded fashion.
Urinary albumin/creatinine ratios were determined using the Mouse Albumin ELISA Quantitation set (Bethyl Laboratories, Montgomery, TX) and the Creatinine FS kit (DiaSys Diagnostic Systems, Holzheim, Germany)[44]. BUN levels were determined in plasma samples using a Urea FS kit (DiaSys Diagnostic Systems). Mouse IgM, IgG and its isotypes IgG1, IgG2a and IgG2b plasma levels were measured using ELISA Sets (Bethyl Laboratories) at a plasma dilution of 1:1,000 to 1:100,000. Double-stranded DNA IgG and IgM antibodies were quantified as described. Briefly, 96 well Nunc-Immuno plates (Thermo Fisher Scientific, Roskilde, Denmark) were coated with poly-L-lysine (1:1 diluted with PBS) and incubated for two hours. After washing the plates, the plates were coated with 1 µg/ml mouse tail dsDNA sparing the wells for standards, which were coated with anti-mIgG and anti-mIgM (Bethyl Laboratories). The standard curve was fixed from purified mIgG and mIgM (Bethyl Laboratories). The plasma samples were diluted 1:1,000 and added into the wells. After 1 h the assay was developed using HRP-labelled goat anti-mIgG and anti-mIgM and TMB substrate (BD Bioscience, San Diego, CA). […]

[4] = target: Human Cat-L (Homo sapiens, UniProt P07711); test: Enzymatic isoform-selectivity assay, Cat-L; format: biochemical
Protocol: as §1

[5] = tested on: diversity panel consisting of nearly 100 receptor binding and enzymatic assays; test: Diversity panel of receptor binding and enzymatic assays; conditions: 10 µM concentration; data not shown
[6] = target: Human Cat-B (Homo sapiens, UniProt P07858); test: Enzymatic isoform-selectivity assay, Cat-B; format: biochemical
Protocol: as §1

Sequence of Human Cat-L (P07711 114-333): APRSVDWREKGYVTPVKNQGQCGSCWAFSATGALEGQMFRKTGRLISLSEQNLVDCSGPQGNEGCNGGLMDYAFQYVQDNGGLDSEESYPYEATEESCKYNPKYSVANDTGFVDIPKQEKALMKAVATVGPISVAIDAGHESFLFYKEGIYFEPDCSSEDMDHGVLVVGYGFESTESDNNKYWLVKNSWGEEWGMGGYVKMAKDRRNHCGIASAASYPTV
Sequence of Human Cat-S (P25774 115-331): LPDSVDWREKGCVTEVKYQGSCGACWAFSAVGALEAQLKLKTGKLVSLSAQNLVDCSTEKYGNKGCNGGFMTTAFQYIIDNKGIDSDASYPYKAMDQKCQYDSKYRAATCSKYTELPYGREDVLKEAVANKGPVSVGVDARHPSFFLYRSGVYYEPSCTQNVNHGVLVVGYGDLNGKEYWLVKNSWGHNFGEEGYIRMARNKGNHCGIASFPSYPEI

Compound: Cn1cc(-c2ccc(S(=O)(=O)[C@@H]3C[C@@H](C(=O)NC4(C#N)CC4)N(C(=O)C4(C(F)(F)F)CC4)C3)c(C(F)(F)F)c2)cn1 [RO5459072]
- IC50 [1]: > 1000 nM
- IC50, Human Cat-K [1]: No sub-micro molar inhibition
- IC50 [2]: 0.1 nM
- intrarenal mononuclear phagocyte and T cell subsets ([3]; flow cytometry of kidneys): suppressed
- reduction of urinary albumin/creatinine (A/C) ratio more than MMF ([3]; highest dose of RO5459072 versus MMF): 2 log scales
- plasma levels of antinuclear antibodies ([3]; highest dose, week 19): suppressed
- food intake or body weight between groups ([3]; medicated diets, throughout the study period): no significant difference
- intrarenal mRNA expression of IL-6, MCP-1/CCL2, RANTES/CCL5 and CXCL2 ([3]; real time PCR, kidney): suppressed
- intrarenal mRNA expression of TNF-α, IFN-γ and SDF-1/CXCL12 ([3]; real time PCR, kidney): remained unaffected
- blood urea nitrogen (BUN) over time ([3]; week 11-19): prevented the progressive increase
- podocyte number and proteinuria ([3]; week 11-19): protective effect
- dsDNA IgM ([3]; week 11-19, ELISA): did not affect
- total levels of plasma IgM ([3]; week 11-19, ELISA): did not affect
- spleen plasma cells and plasma IgG levels and IgG isotypes ([3]; week 11-19, RO5459072 3, 10, 30 mg/kg/day, MMF 100 mg/kg/day): dose-dependently suppressed
- plasma dsDNA IgG levels (IgG autoantibodies) ([3]; week 11-19, RO5459072 highest dose, MMF 100 mg/kg/day, ELISA): suppress plasma dsDNA IgG levels below baseline
- spleen CD11c+/CD11b+/MHCII+ antigen-presenting cells ([3]; week 11-19, flow cytometry): suppressed
- spleen CD11c+/F4/80+/MHCII+ cells ([3]; week 11-19, flow cytometry): suppressed
- complement C3 deposits, diffuse proliferative glomerular lesions and glomerulosclerosis ([3]; week 19): less
- integrity of the glomerular vasculature (CD31 staining) ([3]; week 19): improved
- activity and chronicity scores of nephritis ([3]; week 19, PAS sections): dose-dependently reduced
- IC50 [4]: > 1000 nM
- IC50, Human Cat-L [4]: No sub-micro molar inhibition
- inhibition on diversity panel [5]: ≤ 30%
- IC50 [6]: > 1000 nM
- IC50, Human Cat-B [6]: No sub-micro molar inhibition

Source: publication PMC5459853, “Cathepsin S inhibition combines control of systemic and peripheral pathomechanisms of autoimmune tissue injury” (Scientific Reports, 2017)
